Tests used:
Type in all cases: biochemical
tau 4R2N trimer protease = target: T1, tau 4R2N trimer protease (Homo sapiens, UniProt P10636); experiment: Peptide assay (tau peptide 335-353, reverse-phase HPLC) used to screen serine protease inhibitors; conditions: 1 mM PMSF (also printed 1 μM), one hr at room temperature before peptide substrate
T1 construct: Stabilization buffer enables production of full length monomer, dimer and trimer for tau protease; made in house; host or cells: E. coli BL21 (DE3) Gold
T1 sequence (P10636 1-441 isoform P10636-8): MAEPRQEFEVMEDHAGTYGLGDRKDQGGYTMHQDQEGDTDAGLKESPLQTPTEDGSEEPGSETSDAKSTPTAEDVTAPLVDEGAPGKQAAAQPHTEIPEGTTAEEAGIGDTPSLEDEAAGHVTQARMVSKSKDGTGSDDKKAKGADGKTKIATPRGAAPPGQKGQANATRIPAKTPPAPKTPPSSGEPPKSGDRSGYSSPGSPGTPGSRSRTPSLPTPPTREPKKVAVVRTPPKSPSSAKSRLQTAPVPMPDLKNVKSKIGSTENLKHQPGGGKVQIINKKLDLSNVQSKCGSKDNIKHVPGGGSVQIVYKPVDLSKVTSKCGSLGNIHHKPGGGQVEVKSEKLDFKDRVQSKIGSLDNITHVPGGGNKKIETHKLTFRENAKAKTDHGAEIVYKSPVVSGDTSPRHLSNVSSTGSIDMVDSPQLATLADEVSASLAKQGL
Source text: N-terminal sequencing of fragments using mass spectrometry identified autoproteolytic cut sites. In particular, cutting at the Lys340-Ser341 (340KS341) cut site occurred readily. Therefore, a 19-amino acid peptide corresponding to amino acids 335G to 353L of tau protein was synthesized that contained the KS cut site (340KS341). The reaction was monitored by reverse-phase high-pressure liquid chromatography (HPLC). […] An asterisk marks a non-specific contaminant that was used as a marker. […] 10 μg of tau peptide 335-353 ([…]) (SEQ ID NO:19) was custom synthesized by Genscript (Piscataway, N.J., USA) and 1 mg was dissolved in 1 mL of buffer (25 mM Tris-HCl pH 7.4). […] of peptide was incubated with 11 μg of tau trimer protease in 30 μL buffer 20 hr at 37° C. and analyzed by HPLC [SystemGold® 32Karat™ LC-CE System, Beckman Coulter, Inc., (Indianapolis, Ind.)] using a linear gradient of acetonitrile in 0.1% TFA 0-60% acetonitrile on an analytical C18 column (12.5 cm×2.1 mm, 5 μm, (Supelco, Bellefonte, Pa., USA). 30 μg of peptide was incubated without tau protease as a negative control and analyzed with the same method;
The peptide assay for tau 4R2N trimer activity described in FIG. 5 was used to screen a series of serine protease inhibitors. 1 mM AEBSF was incubated with tau 4R2N trimer for 1 hr at room temperature before addition of the peptide substrate. […] The asterisk indicates an artifactual peak unrelated to the peptide;

[1] = system: tau protein from a specimen of Alzheimer's brain; experiment: FP-TAMRA labeling of tau immunopurified from AD brain; conditions: AD brain lysate treated with PMSF before 2 μM FP-TAMRA probe
Source text: Serine hydrolases include a class of enzymes that include serine proteases. The serine hydrolase superfamily is one of the largest known enzyme families that share a catalytic mechanism that involves a serine nucleophile. Phenylmethanesulfonyl fluoride (PMSF) irreversibly binds to the active site serine of serine hydrolases to inactivate their enzymatic activity and prevents the probe from labeling them. […] Protein was extracted from an AD brain by Dounce homogenization in TPER buffer (ThermoFisher Scientific) with 1 mM EDTA, 1 μg/mL pepstatin A, […] phosphoramidon, phosphatase inhibitor (ThermoFisher Scientific). The lysate was cleared by centrifugation at 10,000×g for 20 min. The supernatant was depleted for biotin using Streptavidin-agarose (ThermoFisher Scientific). A probe specific for active serine hydrolases, fluorophosphonate (FP) labeled with a fluorescent carboxytetramethylrhodamine (TAMRA) tag (ThermoFisher Scientific), was incubated with the lysate at a final concentration of 2 μM. As a control for non-specific labeling, a portion of the lysate was treated with phenylmethanesulfonyl fluoride (PMSF), an irreversible inhibitor of serine hydrolases, including tau protease, before using the FP-TAMRA probe. Biotinylated monoclonal antibody HT7 (ThermoFisher Scientific) was used to capture total tau from the lysate with streptavidin-agarose beads (ThermoFisher Scientific). […]

[2] = Tau protease enzymatic activity of truncated tau peptides (general statement)

Molecule	inhibition of cleavage of the peptide (FIG. 14E) (tau 4R2N trimer protease)	FP-TAMRA labeling of immunocaptured protein bands [1]	tau protease enzymatic activity [2]
O=S(=O)(F)Cc1ccccc1 [PMSF, phenylmethanesulfonyl fluoride]	strongly inhibited	reduced labeling	
TP-118: 118 amino acid truncated tau peptide, 4R2N 268-385 (SEQ ID NO:2)			retain tau protease enzymatic activity
